The values that follow come from patent USRE39681E1, “1-(4-sulfamyaryl)-3-substituted-5-aryl-2-pyrazolines and inhibitors of cyclooxygenase-2” (Temple University - of the Commonwealth System of Higher …, priority 1999, dated 2007).

The nature of assay [1]: Cyclooxygenase enzyme assay (TLC method), COX-1. The class given is biochemical, ovine. To be noted: second column headed COX-2; preincubation 90-120 min, [1-14C] arachidonic acid 50 μM; read-out: Inhibition of Cyclooxygenase Activity IC50 COX-2. How it is done:
Cyclooxygenase activity of ovine COX-1 (Oxford Biomedical Research Inc.) and human recombinant COX-2 (Oxford Biomedical Research Inc.) was assayed by a thin layer chromatography (TLC) method as follows. All inhibitors were dissolved in dimethyl sulfoxide to a stock solution of 5mM. Human recombinant COX-2 (3 units) or ovine COX-1 (15 units) was incubated with inhibitors at several concentrations in a solution containing 100 mM Tris-HCl, pH7.8, 500 μM phenol and hematin for 90 to 120 minutes at room temperature (24° C.). In controls, equal volumes of DMSO without drug were added to the incubation mixture. After incubation for 90-120 minutes, [1-^14C] arachidonic acid (50 μM, 51 mCi/mmol) (DuPont NEN) was added and incubated at 37° C. for 2 minutes. The reaction was terminated by extraction with 1 ml of ethyl acetate. The ethyl acetate layer was transferred into a fresh tube and evaporated to dryness in a Speedvac vacuum dryer. The contents of the tubes were reconstituted in […] of ethyl acetate and spotted on a TLC plate (J. T. Baker, Philipsburg, N.J.) and developed in a mobile phase containing chloroform/methanol (95:5) at 4° C. Radiolabeled prostanoid compounds (the products of COX enzymatic reaction with radiolabeled arachidonic acid substrate) were quantitated with a radioactivity scanner (Fuji, Phosphorimager). […]

In a further assay the test system is DLD-1 cells. Put plainly: Soft agar assay, colony growth. Format: cell-based, human. To be noted: highest concentration tested (range 10 μM to 75 μM), one dose, stained 20 days later, FIG. 1. How it is done: The Example 1 and 24 compounds were compared to the COX-2 inhibitor celecoxib in inhibiting the growth of DLD-1 cells in soft agar. DLD-1 cells are human colorectal carcinoma cells that overexpress COX-2. DLD-1 cells grow in soft agar and form tumors in nude mice. The soft agar assay was performed as follows. A layer of bottom agar ([…]) was placed onto 60 mm^2 tissue culture dishes. The tumor cells were trypsinized from normal growth flasks while in exponential growth. The cells were counted by using a hemacytometer and 1.0×10^5 cells were placed into the top agar mixture containing growth medium, 4% noble agar and various concentrations of drugs. The concentration range was normally between 10 μM to 75 μM. The cells were not refed during the assay system; therefore, the cells were treated with one dose of the agents. The plates were stained 20 days later with a 0.05% (w/v) nitroblue tetrazolium solution (which stains only viable cells) for 48 hours. The results are shown in FIG. 1, the y-axis being the percent of cell colonies remaining in comparison to untreated control cells.

SMILES strings stand for the structures. Bounds are passed on as bounds.

What is called IC50 is the concentration that inhibits the measured activity by half. For the molecule `NS(=O)(=O)c1ccc(N2N=C(C(F)(F)F)CC2c2c[nH]c3ccccc23)cc1` (stereo not shown) [Example 24, 1-(4-Sulfamylphenyl)-3-trifluoromethyl-5-(3-indolyl)-2-pyrazoline], in assay [1], the half-maximal inhibitory concentration (IC50) is under 100 µM. For the same molecule, in the assay on DLD-1 cells, the “inhibition of DLD-1 cell colony growth in soft agar” value was 100%.

For `NS(=O)(=O)c1ccc(N2N=C(C(F)(F)F)CC2c2ccccc2)cc1` (stereo not shown) [Example 1, 1-(4-Sulfamylphenyl)-3-trifluoromethyl-5-phenyl-2-pyrazoline], the half-inhibitory concentration (IC50) in assay [1] was under 100 µM. Moreover, the “inhibition of DLD-1 cell colony growth in soft agar” value in the assay on DLD-1 cells stood at 100%.
